“Also recorded” adds a separate entry of the source.
Key:
[1] = pH stability of IHOG in buffer; assay type: physicochemical; conditions: 0.54 mM IHOG, 40 mM potassium phosphate buffer, 35° C.
Protocol: [II] pH Stability of IHOG in Buffer
The survival rate of IHOG (0.54 mM) was measured in 40 mM potassium phosphate buffer at different pH. The storage temperature was adjusted to 35° C.

[2] = stability in strongly acidic or strongly alkaline solution to be treated; assay type: physicochemical; conditions: for stability in strongly acidic solution: strongly acidic region
From the text: The value of pH in the solution to be treated may be 2 to 12, more preferably 7 to 11 and particularly preferably 8 to 9.
When the solution to be treated is strongly acidic or alkaline and contains IHOG, IHOG is decomposed and can not be recovered. […] This cyclization is an irreversible reaction, and therefore, it is difficult to regenerate the cyclized IHOG to reuse for the monatin production.

[3] = pH stability of IHOG in amination reaction solution (without microbial cells); assay type: physicochemical
Protocol: [I] pH Stability of IHOG in Amination Reaction Solution
In order to examine the stability of IHOG in the IHOG amination solution, change of IHOG amounts with time in an IHOG amination solution was measured without adding the microbial cells. A test tube containing 1 mL of the reaction solution composed of 100 mM potassium phosphate buffer (pH 8.3), 300 mM (±)-IHOG, 600 mM DL-Ala and 1 mM pyridoxal-5′-phosphate was shaken at 37° C. for 40 hours, to perform the reaction. […] This is presumed to be attributed to the decomposition of IHOG into indole-3-pyruvic acid and pyruvic acid and the cyclization of IHOG.

[4] = cited from earlier work; for sweetness potency: relative to sucrose

O=C(O)C(=O)CC(O)(Cc1c[nH]c2ccccc12)C(=O)O (racemic) [IHOG, 4-(indol-3-ylmethyl)-4-hydroxy-2-oxoglutaric acid]
Survival rate of IHOG ([1]; pH 7, 2 hr): 97.4% | Survival rate of IHOG ([1]; pH 7, 7 hr): 90.0% | Survival rate of IHOG ([1]; pH 7, 24 hr): 68.4% | Survival rate of IHOG ([1]; pH 7, 48 hr): 45.6% | Survival rate of IHOG ([1]; pH 8, 2 hr): 100.6% | Survival rate of IHOG ([1]; pH 8, 7 hr): 100.1% | Survival rate of IHOG ([1]; pH 8, 24 hr): 96.4% | Survival rate of IHOG ([1]; pH 8, 48 hr): 89.6% | Survival rate of IHOG ([1]; pH 9, 2 hr): 100.6% | Survival rate of IHOG ([1]; pH 9, 7 hr): 101.1% | Survival rate of IHOG ([1]; pH 9, 24 hr): 99.0% | Survival rate of IHOG ([1]; pH 9, 48 hr): 94.4% | Survival rate of IHOG ([1]; pH 10, 2 hr): 97.0% | Survival rate of IHOG ([1]; pH 10, 7 hr): 96.8% | Survival rate of IHOG ([1]; pH 10, 24 hr): 94.2% | Survival rate of IHOG ([1]; pH 10, 48 hr): 90.8% | Survival rate of IHOG ([1]; pH 11, 2 hr): 95.6% | Survival rate of IHOG ([1]; pH 11, 7 hr): 90.7% | Survival rate of IHOG ([1]; pH 11, 24 hr): 74.8% | Survival rate of IHOG ([1]; pH 11, 48 hr): 59.3% | stability in strongly acidic solution [2]: easily cyclized | stability in strongly alkaline solution ([2]; strongly alkaline solution): easily decomposed into indole-3-pyruvic acid and pyruvic acid spontaneously | Survival rate of IHOG ([3]; 100 mM potassium phosphate buffer pH 8.3, 300 mM (±)-IHOG, 600 mM DL-Ala, 1 mM pyridoxal-5'-phosphate, 37° C., after 16 hours): 81% | Survival rate of IHOG ([3]; same amination solution pH 8.3, 37° C., after 24 hours): 70% | Survival rate of IHOG ([3]; same amination solution pH 8.3, 37° C., after 40 hours): 57%

N[C@H](C[C@](O)(Cc1c[nH]c2ccccc12)C(=O)O)C(=O)O (single isomer, unassigned) [(2R, 4R)-isomer]
sweetness rank among four optical isomers of monatin ([4]; comparison of the monatin isomers, listed as (2R, 4R)-monatin): the isomer having the highest sweetness among four optical isomers of monatin; also recorded: highest sweetness potency among monatin isomers | sweetness potency [4]: hundreds of times to thousands of times stronger than sucrose

N[C@H](C[C@@](O)(Cc1c[nH]c2ccccc12)C(=O)O)C(=O)O (single isomer, unassigned) [(2R, 4S)-isomer]
sweetness potency [4]: hundreds of times to thousands of times stronger than sucrose

N[C@@H](C[C@](O)(Cc1c[nH]c2ccccc12)C(=O)O)C(=O)O (single isomer, unassigned) [(2S, 4R)-isomer]
sweetness potency [4]: hundreds of times to thousands of times stronger than sucrose

NC(CC(O)(Cc1c[nH]c2ccccc12)C(=O)O)C(=O)O (single isomer, unassigned) [(2S, 4S)-isomer]
sweetness potency [4]: hundreds of times to thousands of times stronger than sucrose

NC(CC(O)(Cc1c[nH]c2ccccc12)C(=O)O)C(=O)O (centres unmarked) [Monatin]
sweetness potency [4]: dozens to thousands of times stronger than that of sucrose | stability in strongly acidic solution [2]: partially decomposed into lactam and lactone

Source: US7534590B2, “Method for producing monatin” (AJINOMOTO Co., Inc., priority 2003, dated 2009)
